Consider 8 compounds from ChEMBL document CHEMBL1130903, “Preparation of difluoro analogs of CCGs and their pharmacological evaluations” (Bioorg Med Chem Lett, 1998).

SMILES strings stand for the structures. A value given as a limit tells only on which side of the number the result lay.

The target of test [1] is T1, Glutamate NMDA receptor (Rattus norvegicus) (UniProt P35439+Q00959+Q00960+Q00961+Q62645+Q8VHN2+Q9R1M7). Nature of the test: (§1) Relative activity in depolarization to its corresponding CCG(CCG=1) isomer. The test is classed as protein-complex assay.
For test [2], the target named is T1, Glutamate NMDA receptor (Rattus norvegicus). The test is described as follows: Depolarizing activity against NMDA receptor in isolated spinal cord of newborn rat. The class given is protein-complex assay.
The target in test [3] is Metabotropic glutamate receptor 1 (Rattus norvegicus) (UniProt P23385). The test is described as §1.
Chain of Metabotropic glutamate receptor 1 (Rattus norvegicus) (P23385 19-1199 limits assumed): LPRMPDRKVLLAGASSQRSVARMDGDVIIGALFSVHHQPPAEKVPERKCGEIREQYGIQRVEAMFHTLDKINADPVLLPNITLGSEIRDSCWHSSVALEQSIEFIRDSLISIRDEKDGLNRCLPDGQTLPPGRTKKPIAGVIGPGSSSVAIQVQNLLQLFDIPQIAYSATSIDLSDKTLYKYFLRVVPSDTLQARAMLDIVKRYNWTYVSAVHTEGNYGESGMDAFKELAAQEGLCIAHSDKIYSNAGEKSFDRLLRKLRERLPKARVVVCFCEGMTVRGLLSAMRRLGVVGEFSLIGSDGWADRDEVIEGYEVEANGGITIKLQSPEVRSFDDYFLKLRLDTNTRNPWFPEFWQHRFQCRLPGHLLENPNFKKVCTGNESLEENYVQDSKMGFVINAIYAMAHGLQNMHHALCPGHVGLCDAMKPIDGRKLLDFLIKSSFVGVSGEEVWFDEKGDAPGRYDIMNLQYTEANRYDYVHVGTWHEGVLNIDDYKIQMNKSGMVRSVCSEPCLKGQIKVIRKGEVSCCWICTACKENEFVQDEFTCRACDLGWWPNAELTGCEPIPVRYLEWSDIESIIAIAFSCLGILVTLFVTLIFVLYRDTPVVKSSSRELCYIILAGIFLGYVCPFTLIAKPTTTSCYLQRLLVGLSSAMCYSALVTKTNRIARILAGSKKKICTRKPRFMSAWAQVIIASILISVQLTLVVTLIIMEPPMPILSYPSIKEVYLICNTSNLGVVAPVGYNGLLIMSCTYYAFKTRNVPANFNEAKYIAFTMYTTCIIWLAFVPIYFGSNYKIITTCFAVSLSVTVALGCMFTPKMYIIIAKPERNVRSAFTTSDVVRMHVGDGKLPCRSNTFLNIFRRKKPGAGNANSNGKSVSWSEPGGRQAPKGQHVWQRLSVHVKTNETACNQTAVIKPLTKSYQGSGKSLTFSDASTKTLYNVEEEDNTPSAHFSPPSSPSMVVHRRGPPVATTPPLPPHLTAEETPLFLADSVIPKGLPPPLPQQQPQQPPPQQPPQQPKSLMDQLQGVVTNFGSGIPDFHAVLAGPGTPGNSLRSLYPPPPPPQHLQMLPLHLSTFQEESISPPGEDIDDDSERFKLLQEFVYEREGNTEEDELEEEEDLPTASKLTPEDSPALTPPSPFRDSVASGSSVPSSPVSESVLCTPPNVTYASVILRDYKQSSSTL
For test [4] the target is unchanged. The test is described as follows: Depolarizing activity against mGluR-I receptor in isolated spinal cord of newborn rat. The test is classed as tissue-based.

As to `N[C@@H](C(=O)O)[C@H]1[C@H](C(=O)O)C1(F)F`, the Ratio of depolarizing activity in test [1] came out at 1.2. This compound had a Threshold concentration in test [2] of 30 µM.
`NC(C(=O)O)[C@H]1[C@@H](C(=O)O)C1(F)F` (single isomer, unassigned): the Ratio of depolarizing activity in test [1] is less than 0.01. Also, in test [2], the Threshold concentration came out at 1000 µM.
For `N[C@H](C(=O)O)[C@@H]1[C@@H](C(=O)O)C1(F)F`, the Ratio of depolarizing activity in test [3] came out at 3. The compound further had a Threshold concentration in test [4] of 2 µM.
In the case of `N[C@@H](C(=O)O)[C@@H]1[C@@H](C(=O)O)C1(F)F`, in test [1], the Ratio of depolarizing activity is 0.1. Moreover, in test [2], the Threshold concentration was found to be 10 µM.
With `N[C@H](C(=O)O)[C@H]1[C@H](C(=O)O)C1(F)F`, the Ratio of depolarizing activity in test [3] came to 0.5. Further, the Threshold concentration in test [4] and in test [2] was 300 µM throughout.
`N[C@H](C(=O)O)[C@H]1[C@@H](C(=O)O)C1(F)F`: the Ratio of depolarizing activity in test [1] worked out at 1.5. The Threshold concentration in test [2] came out at 1 µM.
The corresponding values for `N[C@H](C(=O)O)[C@@H]1[C@H](C(=O)O)C1(F)F` are 2 and 100 µM.
Taken in the same sequence, the figures for `NC(C(=O)O)[C@@H]1[C@H](C(=O)O)C1(F)F` (single isomer, unassigned) were less than 0.1 and 1000 µM.
